# In US20090062395A1, “RENIN INHIBITORS FOR THE TREATMENT OF HYPERTENSION” (priority 2006, published 2009):
# Experiments:
# patients [1] = assay: Abrupt withdrawal of aliskiren after eight weeks of treatment, compared with placebo (FIG. 3); assay type: in vivo, human
# Description: In another study, the potential for rebound hypertension following abrupt withdrawal of aliskiren treatment was evaluated in those patients who completed eight weeks of treatment compared to patients that were given a placebo only. The tested doses were 150, 300 and 600 mg of aliskiren.
# patients [2] = assay: Long-term study, placebo-controlled randomized withdrawal period from month 11 (visit 10); assay type: in vivo, human; conditions: for Mean change (SD) from Month 11 (Visit 10) in msDBP / Mean change (SD) from Month 11 (Visit 10) in msSBP: continued aliskiren monotherapy 150 or 300 mg
# Description: Persistence of effect was examined after a long-term study in which patients were treated for approximately 1 year. Patients were randomly assigned to aliskiren at either 150 mg or 300 mg a day. Aliskiren was increased to 300 mg in those patients who had not responded to 150 mg. Starting at the end of treatment month 2 and 3, investigators adjusted individual therapy in order to achieve a goal BP of <140/90 mm Hg. Subsequent upward dose titration required that BP exceed 140/90 for two consecutive visits. No downward titration of aliskiren was permitted.
# At month 11 (visit 10), patients who had been maintained on aliskiren monotherapy entered a placebo-controlled randomized withdrawal study to confirm continued efficacy. Eligible patients were stratified based on dose and randomized in a 1:1 ratio to either continue their current treatment of aliskiren monotherapy (aliskiren 150 mg or aliskiren 300 mg) or be switched to placebo in a double-blind fashion.
# The potential for a rebound effect on BP with abrupt treatment withdrawal was evaluated.
# Rebound was defined as a rise of >5 mm Hg for diastolic and >10 mm for systolic was used and the results are presented separately.
# [3] = End point: Month 11 + 28 days or last visit carried forward
# [4] = Visit 11, Month 11 + 7 Days, randomized withdrawal ITT population
smiles,measurement,setting,value
"COCCCOc1cc(C[C@@H](C[C@H](N)[C@@H](O)C[C@H](C(=O)NCC(C)(C)C(N)=O)C(C)C)C(C)C)ccc1OC [aliskiren, 2(S),4(S),5(S),7(S)—N-(3-amino-2,2-dimethyl-3-oxopropyl)-2,7-di(1-methylethyl)-4-hydroxy-5-amino-8-[4-methoxy-3-(3-methoxy-propoxy)phenyl]-octanamide]",Patients with msDBP and msSBP values remaining below baseline,"patients [1]; 4 days and 2 weeks after drug withdrawal, aliskiren 150 mg, 300 mg and 600 mg groups versus placebo group","more patients in the aliskiren 150 mg, 300 mg, and 600 mg groups had msDBP and msSBP values that remained below baseline compared with the placebo group"
same,Persistence of the antihypertensive effect following withdrawal,"patients [1]; after eight weeks of aliskiren 150, 300 or 600 mg, study period of two weeks",a good persistence of the antihypertensive effect
same,Rebound hypertension following abrupt withdrawal,"patients [1]; after eight weeks of aliskiren 150, 300 or 600 mg, two weeks after withdrawal",no signs of rebound hypertension
same,BP after withdrawal of study drug versus placebo group,"patients [1]; aliskiren 150, 300 and 600 mg for eight weeks, throughout the drug withdrawal period",values still remained lower than those in the placebo group
same,Mean change (SD) from Month 11 (Visit 10) in msDBP,patients [2]; [3],1.2 (6.9) mm Hg
same,Mean change (SD) from Month 11 (Visit 10) in msSBP,patients [2]; [3],1.7 (10.1) mm Hg
same,Mean change (SD) from Month 11 (Visit 10) in msDBP,patients [2]; [4],0.3 (6.8) mm Hg
same,Mean change (SD) from Month 11 (Visit 10) in msSBP,patients [2]; [4],1.3 (10.3) mm Hg
same,Mean change (SD) from Month 11 (Visit 10) in msDBP,"patients [2]; Visit 12, Month 11 + 14 Days",0.3 (6.8) mm Hg
same,Mean change (SD) from Month 11 (Visit 10) in msSBP,"patients [2]; Visit 12, Month 11 + 14 Days",0.3 (10.4) mm Hg
same,Mean change (SD) from Month 11 (Visit 10) in msDBP,"patients [2]; Visit 13, Month 11 + 21 Days",0.4 (6.7) mm Hg
same,Mean change (SD) from Month 11 (Visit 10) in msSBP,"patients [2]; Visit 13, Month 11 + 21 Days",0.5 (10.6) mm Hg
same,Mean change (SD) from Month 11 (Visit 10) in msDBP,"patients [2]; Visit 14, Month 11 + 28 Days",1.1 (6.8) mm Hg
same,Mean change (SD) from Month 11 (Visit 10) in msSBP,"patients [2]; Visit 14, Month 11 + 28 Days",1.8 (10.1) mm Hg
same,Persistence of blood pressure lowering effect after withdrawal,patients [2]; patients switched to placebo at month 11 after aliskiren 150 or 300 mg monotherapy,a persistence of a blood pressure lowering effect was observed for several weeks after withdrawal
same,Rebound effect on BP with abrupt treatment withdrawal,patients [2]; rebound defined as rise of >5 mm Hg diastolic and >10 mm systolic,no sign of rebound
